Assay results from the supplement of paper PMC10307832.

What was measured:
Assay in all cases: relative viability (nuclei count vs DMSO), 5 days (fraction); higher = more cells survive
[1] = compound: CC1=NN=C(O1)C2=NN=C(C=C2)N3CCC(CC3)OC4=C(C=CC(=C4)F)Cl + O=C(c1cc(Cc2n[nH]c(=O)c3ccccc23)ccc1F)N1CCN(C(=O)C2CC2)CC1 [Olaparib] (partner 8 µM)
Procedure, shortened: (§1)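 Nuclei were stained with Hoechst during a one-step fixation (final 0.05% Triton X-100, 1% formaldehyde, 1 ug/ml Hoechst) carried out 5 days after dosing, then counted on 4× images. The cells, lung cancer lines in 1536-well plates, had been dosed by pin tool the day after seeding with one drug alone or a fixed anchor-drug dose plus five library-drug doses (not always all listed) in √10 steps. Relative viability is the nuclei count in treated wells divided by that in vehicle wells, and each value is the median of duplicate plates.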

Tosedostat + Decitabine = compound: CC(C)C[C@@H](C(=O)N[C@H](C(=O)OC1CCCC1)c1ccccc1)[C@H](O)C(=O)NO [Tosedostat] + Nc1ncn([C@H]2C[C@H](O)[C@@H](CO)O2)c(=O)n1 [Decitabine] (partner 2 µM)
Procedure, shortened: as §1

[2] = compound: CC1=NN=C(O1)C2=NN=C(C=C2)N3CCC(CC3)OC4=C(C=CC(=C4)F)Cl + O=C(CCCCCCC(=O)Nc1ccccc1)NO [Vorinostat] (partner 1 µM)
Procedure, shortened: as §1

[3] = compound: CC1=NN=C(O1)C2=NN=C(C=C2)N3CCC(CC3)OC4=C(C=CC(=C4)F)Cl + C[C@]1(O)C[C@@H](c2nc(-c3ccc4ccc(-c5ccccc5)nc4c3)c3c(N)nccn32)C1 [Linsitinib] (partner 1 µM)
Procedure, shortened: as §1

## UMC-11
[1]; first compound 0.253 µM
  relative viability: 0.244
[1]; first compound 0.8 µM
  relative viability: 0.379
[1]; first compound 2.53 µM
  relative viability: 0.396
[1]; first compound 8 µM
  relative viability: 0.233
Tosedostat + Decitabine; first compound 0.02 µM
  relative viability: 0.687
Tosedostat + Decitabine; first compound 0.06325 µM
  relative viability: 0.575
Tosedostat + Decitabine; first compound 0.2 µM
  relative viability: 0.801
Tosedostat + Decitabine; first compound 0.6325 µM
  relative viability: 0.568
Tosedostat + Decitabine; first compound 2 µM
  relative viability: 0.587
[2]; first compound 0.253 µM
  relative viability: 0.361
[2]; first compound 0.8 µM
  relative viability: 0.351
[2]; first compound 2.53 µM
  relative viability: 0.431
[2]; first compound 8 µM
  relative viability: 0.383
[3]; first compound 0.253 µM
  relative viability: 0.758
[3]; first compound 0.8 µM
  relative viability: 0.732
[3]; first compound 2.53 µM
  relative viability: 0.714
[3]; first compound 8 µM
  relative viability: 0.744
